The term IC50 denotes the concentration needed to halve the response being measured. Usually inhibition stands for the relative decrease from the control value, in per cent.

Data on four compounds can be found in article PMC5378956, “Inhibition of delta-secretase improves cognitive functions in mouse models of Alzheimer's disease” (Nature Communications, 2017).

In one data set the test system is Caco-2 monolayer. In words: Caco-2 monolayer permeability screen. On the procedure: Supplementary Table 3: Caco-2 permeability and BBB-PAMPA permeability
For CaCo-2 permeability assay, cells were incubated with 10 µM of these reagents in
buffers for 2 h, and the receiver side buffer is removed for analysis by LC/MS/MS. Efflux […]
LLOQ: Lower Limit of Quantification; Papp: apparent permeability.

A further data set deals with primary neurons. The experiment in a line: LDH release of primary neurons after OGD. It is filed as cell-based, mouse. On the technique in general: Release of lactate dehydrogenase indicates damage to the cell membrane.
The target in the next data set is cathepsin-L (Homo sapiens, UniProt P07711). In words: IC50 assay with cathepsin-L. In kind it is biochemical. Conditions: mean±s.d. On the procedure: Cathepsin-L – 100 nM enzyme was pre-incubated with inhibitor in assay buffer (100 mM Sodium Acetate pH 5.5, 1 mM EDTA) for 10 min at 37 °C. The reaction was initiated on addition of 25 μM substrate (D-Val-Leu-Lys-AMC (Bachem).
Sequence of cathepsin-L (P07711 114-333, species assumed): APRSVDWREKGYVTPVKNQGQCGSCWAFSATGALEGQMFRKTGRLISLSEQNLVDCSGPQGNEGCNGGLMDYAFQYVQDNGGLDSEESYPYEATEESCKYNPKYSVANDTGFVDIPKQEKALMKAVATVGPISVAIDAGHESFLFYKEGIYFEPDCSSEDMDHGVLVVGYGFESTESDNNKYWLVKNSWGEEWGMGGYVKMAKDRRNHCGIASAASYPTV
To determine the IC50 values of the compounds towards δ-secretase, cathepsin-S, cathepsin-L, caspase-3 and caspase-8, purified recombinant enzyme was incubated in appropriate assay buffers in the presence of increasing concentrations of inhibitors. The formation of fluorescent product was monitored in duplicate reactions and the data were fit to appropriate equations to calculate the IC50 values.

A short description of data set [1]: Liver microsomal stability, human. To be noted: Human microsomes, 30 min, 37 °C. The method, then: Supplementary Table 4: Liver microsomal stability
Compound Species Mean Remaining Parent Mean Remaining Parent
(with NADPH) (NADPH-free)
The test agents were incubated in duplicate with microsomes at 37 °C for 30 min. The reaction contained microsomal protein in 100 mM potassium phosphate, 2 mM NADPH, 3 mM MgCl2, pH 7.4. A control was run for each test agent omitting NADPH to detect NADPH-free degradation. Data are reported as % remaining of parent compound. ND, Peak not detected due to bioanalysis issue (poor ionization).
(In general: Microsomes from liver hold many membrane-bound enzymes, among them those of drug oxidation.)

For another data set, the target named is CYP3A4 (Homo sapiens, UniProt P08684). The experiment in a line: CYP inhibition screening in microsomes. Conditions: pH 7.4, probe midazolam.
Sequence of CYP3A4 (P08684 whole entry): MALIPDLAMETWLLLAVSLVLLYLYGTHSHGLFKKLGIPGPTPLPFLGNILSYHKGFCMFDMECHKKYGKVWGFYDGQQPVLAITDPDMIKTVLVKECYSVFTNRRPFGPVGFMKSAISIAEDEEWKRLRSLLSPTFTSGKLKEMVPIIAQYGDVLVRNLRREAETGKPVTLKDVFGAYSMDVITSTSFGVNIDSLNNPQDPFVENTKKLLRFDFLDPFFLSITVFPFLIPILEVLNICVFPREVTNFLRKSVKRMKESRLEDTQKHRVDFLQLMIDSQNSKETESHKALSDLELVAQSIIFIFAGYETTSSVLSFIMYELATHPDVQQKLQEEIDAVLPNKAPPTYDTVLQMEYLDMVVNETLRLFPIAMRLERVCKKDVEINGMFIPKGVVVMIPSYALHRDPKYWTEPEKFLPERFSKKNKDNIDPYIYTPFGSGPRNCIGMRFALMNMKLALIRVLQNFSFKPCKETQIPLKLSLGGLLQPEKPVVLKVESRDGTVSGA
The next data set concerns the target T1, CYP1A2 (Homo sapiens, UniProt P05177).
T1 sequence (P05177 1-516): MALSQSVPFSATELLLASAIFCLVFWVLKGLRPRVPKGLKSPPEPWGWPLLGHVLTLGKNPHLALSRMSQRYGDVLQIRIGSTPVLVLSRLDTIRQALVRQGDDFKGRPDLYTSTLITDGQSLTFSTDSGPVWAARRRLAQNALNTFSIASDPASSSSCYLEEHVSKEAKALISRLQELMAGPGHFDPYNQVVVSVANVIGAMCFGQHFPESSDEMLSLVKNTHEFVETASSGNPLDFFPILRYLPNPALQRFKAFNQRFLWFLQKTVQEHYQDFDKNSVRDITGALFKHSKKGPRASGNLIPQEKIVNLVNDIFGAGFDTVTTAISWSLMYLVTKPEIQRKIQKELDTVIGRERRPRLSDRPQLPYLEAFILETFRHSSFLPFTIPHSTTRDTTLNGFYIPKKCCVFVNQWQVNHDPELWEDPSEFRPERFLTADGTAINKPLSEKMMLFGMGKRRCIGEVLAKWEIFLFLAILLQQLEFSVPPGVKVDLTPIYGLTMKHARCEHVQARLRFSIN
In words: CYP inhibition screening in microsomes. To be noted: pH 7.4.

The next data set deals with T2, GAPDH (Mus musculus, UniProt P16858).
T2 construct: GAPDH activity in primary neurons; endogenous in cells; host or cells: primary neurons (mouse cortical)
T2 sequence (P16858 whole entry): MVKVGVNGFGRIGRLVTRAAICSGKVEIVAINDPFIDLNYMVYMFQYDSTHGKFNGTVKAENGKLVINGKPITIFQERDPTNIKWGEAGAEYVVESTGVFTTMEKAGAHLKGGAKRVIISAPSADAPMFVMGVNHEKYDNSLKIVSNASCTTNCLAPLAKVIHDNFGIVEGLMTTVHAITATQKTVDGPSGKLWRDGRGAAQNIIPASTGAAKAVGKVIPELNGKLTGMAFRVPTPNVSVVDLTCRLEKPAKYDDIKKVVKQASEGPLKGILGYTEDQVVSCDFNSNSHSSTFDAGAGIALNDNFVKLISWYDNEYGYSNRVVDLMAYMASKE
In words: GAPDH activity assay in primary neurons. It is filed as cell-based. The method, then: GAPDH activity was assessed using the GAPDH Activity Assay Kit (Biovision) according to the manufacture's instructions.

The next data set has as its target T3, δ-secretase (Homo sapiens, UniProt Q99538).
T3 construct: tested with purified active δ-secretase, IC50 values for the top 8 candidates were calculated; purchased Sino Biological (Beijing, China)
T3 sequence (Q99538 18-323 limits assumed): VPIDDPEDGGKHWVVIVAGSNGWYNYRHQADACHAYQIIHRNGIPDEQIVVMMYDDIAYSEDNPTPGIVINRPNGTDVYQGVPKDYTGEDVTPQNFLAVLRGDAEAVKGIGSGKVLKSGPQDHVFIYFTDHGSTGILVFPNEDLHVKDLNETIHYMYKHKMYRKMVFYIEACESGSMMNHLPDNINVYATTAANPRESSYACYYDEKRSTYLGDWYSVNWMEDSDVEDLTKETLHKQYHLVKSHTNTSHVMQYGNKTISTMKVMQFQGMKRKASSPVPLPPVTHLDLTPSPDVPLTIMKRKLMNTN
In words: DTT and L-cysteine reversibility of δ-secretase inhibition. Conditions: 10 mM DTT or L-cysteine, inhibitor at its IC50. It is filed as biochemical.

As to `Nc1ccc(N2CCOCC2)c2nonc12` [compound 11, 7-(morpholin-4-yl)-2,1,3-benzoxadiazol-4-amine], the “Caco-2 permeability in words” value in the data set on Caco-2 monolayer is recorded as “highly permeable”. The “OGD-induced cell toxicity in neurons from 5XFAD or tau P301S mice” value in the data set on primary neurons (cultured neurons from 5XFAD mice or tau P301S mice) is “attenuated OGD-induced cell toxicity”. Moreover, the “neuronal injury induced by OGD in δ-secretase knockout neurons” value with primary neurons (neurons from δ-secretase knockout mice) is reported as “did not further protect”. Besides, the “neuronal injury (LDH in medium) induced by OGD” value in the data set on primary neurons (wild-type neurons) is on record as “attenuated neuronal injury”. Further, the IC50 on cathepsin-L is over 200 µM. The “Mean Remaining Parent (NADPH-free)” value in data set [1] is listed as 93%. The “Mean Remaining Parent (with NADPH)” value in data set [1] came out at 76%. The inhibition at 10 min, 3 µM against CYP3A4 stood at 3.6%; against CYP1A2 it was 13.1%. Also, the inhibition at 10 min, 10 µM on CYP3A4 is 8%; against CYP1A2, 37%. Further, the GAPDH inhibition result at GAPDH (2 μM) is “failed to inhibit GAPDH”; on GAPDH (50 μM), “some inhibitory effect”.

At cathepsin-L, `Cc1cccc(NCc2ccc(O)c3ncccc23)c1C` [compound 12] registered an IC50 of over 200 µM. In data set [1], the “Mean Remaining Parent (NADPH-free)” value is on record as 1% and the “Mean Remaining Parent (with NADPH)” value is recorded as 1%. In addition, at CYP3A4, the inhibition at 10 min, 3 µM is -2.5% and the inhibition at 10 min, 10 µM is -2.5%. In addition, at CYP1A2, the inhibition at 10 min, 3 µM was found to be 28.4% and the inhibition at 10 min, 10 µM worked out at 44.5%.

As to `COc1ccc(N2CCN(C(c3ccc(N(C)C)cc3)c3nnnn3C(C)(C)C)CC2)cc1` (stereo not drawn) [compound 31], the “Caco-2 permeability in words” value with Caco-2 monolayer was “highly permeable”. At cathepsin-L, the IC50 is 1.3 ± 0.39 µM. In data set [1], the “Mean Remaining Parent (NADPH-free)” value stood at 75% and the “Mean Remaining Parent (with NADPH)” value was 12%. Besides, at CYP3A4, the inhibition at 10 min, 3 µM was -0.9% and the inhibition at 10 min, 10 µM was 18.1%. Also, at CYP1A2, the inhibition at 10 min, 3 µM turned out to be 13.5% and the inhibition at 10 min, 10 µM amounted to 10.3%.

With `Cn1c(=O)[nH]c(=O)c2c1nc(S)n2CC(O)COc1ccc(Cl)cc1` (stereo not drawn) [compound 38], the IC50 against cathepsin-L was over 200 µM. Besides, in data set [1], the “Mean Remaining Parent (NADPH-free)” value is given as 107% and the “Mean Remaining Parent (with NADPH)” value was 88%. Also, the “recovery of δ-secretase activity on addition of reducing agents” value at δ-secretase is reported as “regained a substantial amount of activity”. On CYP3A4, the inhibition at 10 min, 3 µM worked out at 7.3% and the inhibition at 10 min, 10 µM turned out to be 10.4%. For the same compound, at CYP1A2, the inhibition at 10 min, 3 µM was -7.6% and the inhibition at 10 min, 10 µM turned out to be 10.5%.
